Key:
Conditions in all cases: 48 h
[1] = system: NOMO1; experiment: AUC of viability dose-response curve (% viability x log10 dose units); higher = less sensitive
Method in brief: (§1)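 Leukemia cells adapted to each medium were seeded at 500 or 1000 cells/well in 1536-well plates and dosed with library compounds in DMSO at 11 threefold doses from 47 μM to 0.79 nM for 48 h at 37°C. CellTiter-Glo One luminescence was normalised per plate to DMSO and cell-free wells, then fitted with a four-parameter log-logistic model over log10 doses. Area under the curve was taken from this fit by the trapezoidal rule, with curves above full viability scaled and curves failing quality control removed.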

[2] = system: P12-Ichikawa; experiment: as above
Method in brief: as §1

[3] = system: SEM cells; experiment: as above
Method in brief: as §1

[4] = system: NOMO1; experiment: cell viability relative to DMSO control; higher = less cytotoxic
Method in brief: (§2)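 Library compounds in DMSO were pin-dosed into 1536-well plates (5 μl) holding NOMO1 or SEM (500 cells/well) or P12-Ichikawa (1000 cells/well) leukemia cells, across an 11-point threefold series of 47 μM to 0.79 nM. Each cell line had been adapted for at least four passages in each medium. CellTiter-Glo One luminescence was read after 48 h at 37°C. Viability is the per-plate percentage relative to DMSO wells, with cell-free wells as background.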

[5] = system: P12-Ichikawa; experiment: as above
Method in brief: as §2

[6] = system: SEM cells; experiment: as above
Method in brief: as §2

[7] = RPMI 5 mM glucose + 10% dialyzed FBS
[8] = HPLM + 10% dialyzed FBS, 0.000781 µM
[9] = HPLM + 10% dialyzed FBS, 0.00234 µM
[10] = HPLM + 10% dialyzed FBS, 0.00702 µM
[11] = HPLM + 10% dialyzed FBS, 0.0211 µM
[12] = HPLM + 10% dialyzed FBS, 0.0632 µM
[13] = HPLM + 10% dialyzed FBS, 0.19 µM
[14] = HPLM + 10% dialyzed FBS, 0.569 µM
[15] = HPLM + 10% dialyzed FBS, 1.71 µM
[16] = HPLM + 10% dialyzed FBS, 5.12 µM
[17] = HPLM + 10% dialyzed FBS, 15.4 µM
[18] = HPLM + 10% dialyzed FBS, 46.1 µM
[19] = RPMI 5 mM glucose + 10% FBS, 0.000781 µM
[20] = RPMI 5 mM glucose + 10% FBS, 0.00234 µM
[21] = RPMI 5 mM glucose + 10% FBS, 0.00702 µM
[22] = RPMI 5 mM glucose + 10% FBS, 0.0211 µM
[23] = RPMI 5 mM glucose + 10% FBS, 0.0632 µM
[24] = RPMI 5 mM glucose + 10% FBS, 0.19 µM
[25] = RPMI 5 mM glucose + 10% FBS, 0.569 µM
[26] = RPMI 5 mM glucose + 10% FBS, 1.71 µM
[27] = RPMI 5 mM glucose + 10% FBS, 5.12 µM
[28] = RPMI 5 mM glucose + 10% FBS, 15.4 µM
[29] = RPMI 5 mM glucose + 10% FBS, 46.1 µM
[30] = RPMI 5 mM glucose + 10% dialyzed FBS, 0.000781 µM
[31] = RPMI 5 mM glucose + 10% dialyzed FBS, 0.00234 µM
[32] = RPMI 5 mM glucose + 10% dialyzed FBS, 0.00702 µM
[33] = RPMI 5 mM glucose + 10% dialyzed FBS, 0.0211 µM
[34] = RPMI 5 mM glucose + 10% dialyzed FBS, 0.0632 µM
[35] = RPMI 5 mM glucose + 10% dialyzed FBS, 0.19 µM
[36] = RPMI 5 mM glucose + 10% dialyzed FBS, 0.569 µM
[37] = RPMI 5 mM glucose + 10% dialyzed FBS, 1.71 µM
[38] = RPMI 5 mM glucose + 10% dialyzed FBS, 5.12 µM
[39] = RPMI 5 mM glucose + 10% dialyzed FBS, 15.4 µM
[40] = RPMI 5 mM glucose + 10% dialyzed FBS, 46.1 µM

## CO[C@@H]1[C@H](N(C)C(=O)c2ccccc2)C[C@H]2O[C@]1(C)n1c3ccccc3c3c4c(c5c6ccccc6n2c5c31)C(=O)NC4
[1]; HPLM + 10% dialyzed FBS
  AUC of viability dose-response curve: 415
[1]; RPMI 5 mM glucose + 10% FBS
  AUC of viability dose-response curve: 424
[1]; [7]
  AUC of viability dose-response curve: 412
[2]; HPLM + 10% dialyzed FBS
  AUC of viability dose-response curve: 373
[2]; RPMI 5 mM glucose + 10% FBS
  AUC of viability dose-response curve: 380
[2]; [7]
  AUC of viability dose-response curve: 386
[3]; HPLM + 10% dialyzed FBS
  AUC of viability dose-response curve: 313
[3]; RPMI 5 mM glucose + 10% FBS
  AUC of viability dose-response curve: 308
[3]; [7]
  AUC of viability dose-response curve: 305
[4]; [8]
  cell viability: 103%
[4]; [9]
  cell viability: 104%
[4]; [10]
  cell viability: 128%
[4]; [11]
  cell viability: 116%
[4]; [12]
  cell viability: 153%
[4]; [13]
  cell viability: 134%
[4]; [14]
  cell viability: 135%
[4]; [15]
  cell viability: 114%
[4]; [16]
  cell viability: 80%
[4]; [17]
  cell viability: 54.5%
[4]; [18]
  cell viability: 49.5%
[4]; [19]
  cell viability: 96.7%
[4]; [20]
  cell viability: 116%
[4]; [21]
  cell viability: 107%
[4]; [22]
  cell viability: 114%
[4]; [23]
  cell viability: 121%
[4]; [24]
  cell viability: 115%
[4]; [25]
  cell viability: 118%
[4]; [26]
  cell viability: 105%
[4]; [27]
  cell viability: 87.1%
[4]; [28]
  cell viability: 50.9%
[4]; [29]
  cell viability: 44.3%
[4]; [30]
  cell viability: 117%
[4]; [31]
  cell viability: 113%
[4]; [32]
  cell viability: 123%
[4]; [33]
  cell viability: 111%
[4]; [34]
  cell viability: 110%
[4]; [35]
  cell viability: 105%
[4]; [36]
  cell viability: 114%
[4]; [37]
  cell viability: 93.2%
[4]; [38]
  cell viability: 80.3%
[4]; [39]
  cell viability: 50.8%
[4]; [40]
  cell viability: 49.5%
[5]; [8]
  cell viability: 113%
[5]; [9]
  cell viability: 111%
[5]; [10]
  cell viability: 113%
[5]; [11]
  cell viability: 112%
[5]; [12]
  cell viability: 121%
[5]; [13]
  cell viability: 122%
[5]; [14]
  cell viability: 122%
[5]; [15]
  cell viability: 109%
[5]; [16]
  cell viability: 17.9%
[5]; [17]
  cell viability: 15%
[5]; [18]
  cell viability: 18.9%
[5]; [19]
  cell viability: 112%
[5]; [20]
  cell viability: 110%
[5]; [21]
  cell viability: 111%
[5]; [22]
  cell viability: 117%
[5]; [23]
  cell viability: 119%
[5]; [24]
  cell viability: 122%
[5]; [25]
  cell viability: 124%
[5]; [26]
  cell viability: 106%
[5]; [27]
  cell viability: 24.4%
[5]; [28]
  cell viability: 28.8%
[5]; [29]
  cell viability: 24.4%
[5]; [30]
  cell viability: 111%
[5]; [31]
  cell viability: 125%
[5]; [32]
  cell viability: 117%
[5]; [33]
  cell viability: 116%
[5]; [34]
  cell viability: 123%
[5]; [35]
  cell viability: 140%
[5]; [36]
  cell viability: 126%
[5]; [37]
  cell viability: 111%
[5]; [38]
  cell viability: 35.7%
[5]; [39]
  cell viability: 33.1%
[5]; [40]
  cell viability: 30.2%
[6]; [8]
  cell viability: 103%
[6]; [9]
  cell viability: 104%
[6]; [10]
  cell viability: 119%
[6]; [11]
  cell viability: 97%
[6]; [12]
  cell viability: 114%
[6]; [13]
  cell viability: 105%
[6]; [14]
  cell viability: 55.5%
[6]; [15]
  cell viability: 37.6%
[6]; [16]
  cell viability: 20.7%
[6]; [17]
  cell viability: 12.7%
[6]; [18]
  cell viability: 7%
[6]; [19]
  cell viability: 87%
[6]; [20]
  cell viability: 111%
[6]; [21]
  cell viability: 110%
[6]; [22]
  cell viability: 106%
[6]; [23]
  cell viability: 105%
[6]; [24]
  cell viability: 92.4%
[6]; [25]
  cell viability: 64.2%
[6]; [26]
  cell viability: 30.3%
[6]; [27]
  cell viability: 10.9%
[6]; [28]
  cell viability: 6.27%
[6]; [29]
  cell viability: 4.63%
[6]; [30]
  cell viability: 101%
[6]; [31]
  cell viability: 108%
[6]; [32]
  cell viability: 109%
[6]; [33]
  cell viability: 97%
[6]; [34]
  cell viability: 107%
[6]; [35]
  cell viability: 85.5%
[6]; [36]
  cell viability: 63%
[6]; [37]
  cell viability: 34.7%
[6]; [38]
  cell viability: 11.8%
[6]; [39]
  cell viability: 7.3%
[6]; [40]
  cell viability: 4.43%

— the supplement of paper PMC11451515
